# Results as given in patent publication US7544691B2, “Guanidine derivatives” (Actelion Pharmaceuticals, Ltd., priority 2004, dated 2009).
# pIC50: −log10 of the molar value.
# Target: T1, NPFF1 receptor (Homo sapiens, UniProt Q9GZQ6)
# T1 construct: expressed in transfected cells; host or cells: Chinese Hamster Ovary cells, CHOSP10 (membranes)
# Assay: NPFF receptor binding test (displacement of 125I-Tyr1-NPFF from CHOSP10 cell membranes)
# Conditions: membranes of CHOSP10 cells producing NPFF1 receptor; 0.2 nM 125I-Tyr1-NPFF; 90 minutes at room temperature
# Experimental: Compounds of Formula I were examined in the following test for their affinity to the NPFF receptors: Hamster cells suitable for neuropeptide FF receptor-binding studies (Chinese Hamster Ovary cells, CHOSP10) which in each case produce the NPFF1 or NPFF2 receptor, were multiplied in standard cell-culture conditions. The cell-culture medium was sucked out and 5 ml of buffer A (5 mM Tris pH=7.4, 1 mM MgCl2) added per 17 cm Petri dish. The cells were scraped off the cell-culture plate and transferred into a 50 ml Falcon vessel. The cells were then centrifuged for 5 minutes at 450 g, resuspended in buffer A once again and mixed for 30 seconds on a Polytron Vortexer. After centrifugation at 30,000 g for 20 minutes the supernatant was discarded and the membrane pellet taken up in 500 μl buffer C (75 mM Tris pH=7.4, 25 mM MgCl2, 250 mM sucrose, 0.1 mM PMSF, 0.1 mM phenanthroline). The membrane-buffer mixture was then divided into aliquots and deep-frozen. The protein content of an aliquot was determined by the Lowry method. The binding test was carried out in a final volume of 250 μl. 100 μl membrane-buffer mixture corresponding to 35 μg protein content was mixed with 95 μl binding buffer (50 mM Tris pH 7.4, 60 mM NaCl, 0.1% protease-free BSA, 0.01% NaN3). After addition of 5 μl of a concentration of test substance per measurement point in each case, 0.2 nM ^125I-Tyr1-NPFF (NEN, NEX381) per measurement point was added in 50 μl. After 90 minutes' incubation at room temperature the samples were sucked out through a GF/C filter (Millipore ([…]60)) and the filter was washed with ice cold binding buffer with 3 times 300 μl (Packard Filtermate). After addition of 55 μl Microscint 40 (Packard 6013641) scintillation fluid the measurement points were quantified in the gamma counter (Packard, Top Count NXT). Non-specific binding was ascertained in the presence of 1 μM unmarked neuropeptide FF. Specific binding is defined as the difference between total and non-specific binding. IC50 values are defined as that concentration of the antagonist which displaces 50% of the ^125I-marked neuropeptide FF. This concentration is ascertained by linear regression analysis after logit/log-transformation of the binding values.
# T1 sequence (Q9GZQ6 whole entry): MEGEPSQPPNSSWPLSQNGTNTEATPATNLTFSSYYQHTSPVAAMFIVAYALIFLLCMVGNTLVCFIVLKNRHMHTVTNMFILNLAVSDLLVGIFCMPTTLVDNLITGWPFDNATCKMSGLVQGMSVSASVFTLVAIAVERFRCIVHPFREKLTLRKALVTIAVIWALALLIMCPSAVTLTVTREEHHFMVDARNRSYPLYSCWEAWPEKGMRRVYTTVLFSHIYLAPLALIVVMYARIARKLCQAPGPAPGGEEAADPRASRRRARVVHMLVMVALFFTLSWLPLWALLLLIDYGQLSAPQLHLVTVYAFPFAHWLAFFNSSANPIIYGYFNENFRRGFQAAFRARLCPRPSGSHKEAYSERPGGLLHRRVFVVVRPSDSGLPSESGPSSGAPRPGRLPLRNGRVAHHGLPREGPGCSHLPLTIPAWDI
row,pIC50,SMILES
1,8.15,"Cc1nc(NC(=N)N)nc2c1C(C)CCC2 (racemic) [N-(4,5-dimethyl-5,6,7,8-tetrahydro-quinazolin-2-yl)-guanidine]"
2,7.32,"Cc1nc(NC(=N)N)nc2c1CC(C)CC2 (racemic) [N-(4,6-dimethyl-5,6,7,8-tetrahydro-quinazolin-2-yl)-guanidine]"
3,7.22,"Cc1nc(NC(=N)N)nc2c1CCCCCC2 (racemic) [N-(4-methyl-5,6,7,8,9,10-hexahydro-cyclooctapyrimidin-2-yl)-guanidine]"
4,8.40,"Cc1nc(NC(=N)N)nc2c1CCCC2 (racemic) [N-(4-methyl-5,6,7,8-tetrahydro-quinazolin-2-yl)-guanidine]"
5,7.27,"Cc1nc(NC(=N)N)nc2c1CCCCC2 (racemic) [N-(4-methyl-6,7,8,9-tetrahydro-5H-cycloheptapyrimidin-2-yl)-guanidine]"
6,7.80,"Cc1nc(NC(=N)N)nc2c1CC(c1ccccc1)CC2 (racemic) [N-(4-methyl-6-phenyl-5,6,7,8-tetrahydro-quinazolin-2-yl)-guanidine]"
7,9.00,"CCCC1CCc2nc(NC(=N)N)nc(C)c2C1 (racemic) [N-(4-methyl-6-propyl-5,6,7,8-tetrahydro-quinazolin-2-yl)-guanidine]"
8,7.80,"Cc1nc(NC(=N)N)nc2c1CCCC2c1ccccc1 (racemic) [N-(4-methyl-8-phenyl-5,6,7,8-tetrahydro-quinazolin-2-yl)-guanidine]"
9,8.70,"Cc1nc(NC(=N)N)nc2c1CC(C(C)C)CC2 (racemic) [N-(6-isopropyl-4-methyl-5,6,7,8-tetrahydro-quinazolin-2-yl)-guanidine]"
10,8.10,"Cc1nc(NC(=N)N)nc2c1CC(C(C)(C)C)CC2 (racemic) [N-(6-tert-butyl-4-methyl-5,6,7,8-tetrahydro-quinazolin-2-yl)-guanidine]"
11,7.14,"CCC(C)C1CCCc2c(C)nc(NC(=N)N)nc21 (racemic) [N-(8-sec-butyl-4-methyl-5,6,7,8-tetrahydro-quinazolin-2-yl)-guanidine]"
12,7.41,"Cc1nc(NC(=N)N)nc2c1CCCC2C(C)(C)C (racemic) [N-(8-tert-butyl-4-methyl-5,6,7,8-tetrahydro-quinazolin-2-yl)-guanidine]"
13,7.72,"CCC(C)(C)C1CCc2nc(NC(=N)N)nc(C)c2C1 (racemic) [N-[6-(1,1-dimethyl-propyl)-4-methyl-5,6,7,8-tetrahydro-quinazolin-2-yl]-guanidine]"
